Entries after “also recorded” stand apart in the source; their conditions may differ.
Columns and labels:
[1] = target: Scenedesmus Short HPPD (Seq ID: 4) (Tetradesmus obliquus, UniProt A0A383WMN4, DEL398-433/N195D); test: In vitro HPPD activity assay; assay type: biochemical
Experimental: (§1) HPPD produces homogentisic acid and CO2 from 4-hydroxyphenylpyruvate (4-HPP) and O2. The activity assay for HPPD is based on the analysis of homogentisic acid by reversed phase HPLC.
(§2) The assay mixture can contain 150 mM potassium phosphate buffer pH 7.0, 50 mM L-ascorbic acid, 100 μM Catalase (Sigma-Aldrich), 1 μM FeSO4 and 0.2 units of purified mutated HPPD enzyme in a total volume of 505 μl. 1 unit is defined as the amount of enzyme that is required to produce 1 nmol of HGA per minute at 20° C.
(§3) After a preincubation of 30 min the reaction is started by adding 4-HPP to a final concentration of 0.05 mM. The reaction is allowed to proceed for 45 min at room temperature. The reaction is stopped by the addition of 50 μl of 4.5 M phosphoric acid. The sample is filtered using a […] pore size PVDF filtration device.
(§4) 5 μl of the cleared sample is analyzed on an UPLC HSS T3 column (particle size 1.8 μm, dimensions 2.1×50 mm; Waters) by isocratic elution using 90% 20 mM NaH2PO4 pH 2.2, 10% methanol (v/v).
(§5) HGA is detected electrochemically at 750 mV (mode: DC; polarity: positive) and quantified by integrating peak areas (Empower software; Waters).
(§6) Inhibitors are dissolved in DMSO (dimethylsulfoxide) to a concentration of 0.5 mM. From this stock solution serial five-fold dilutions are prepared in DMSO, which are used in the assay. The respective inhibitor solution accounts for 1% of the assay volume. Thus, final inhibitor concentrations range from 5 μM to 320 pM, respectively. Activities are normalized by setting the uninhibited enzyme activity to 100%. IC50 values are calculated using non-linear regression.
(§7) Using methods which are described in the above examples or well known in the art, purified, recombinant mutated HPPD enzymes are characterized with respect to their kinetic properties and sensitivity towards HPPD inhibiting herbicides. Apparent michaelis constants (Km) and maximal reaction velocities (Vmax) are calculated by non-linear regression with the software GraphPad Prism 5 (GraphPad Software, La Jolla, USA) using a substrate inhibition model. Apparent kcat values are calculated from Vmax assuming 100% purity of the enzyme preparation. Weighted means (by standard error) of Km and IC50 values are calculated from at least three independent experiments. The Cheng-Prusoff equation for competitive inhibition (Cheng, Y. C.; Prusoff, W. H. Biochem Pharmacol 1973, 22, 3099-3108) is used to calculate dissociation constants (Ki).
(§8) Field performance of the HPPD enzyme, which is used as a herbicide tolerance trait may depend not only on its lack of sensitivity towards HPPD inhibiting herbicides but also on its activity. To assess the potential performance of a herbicide tolerance trait a tolerance index (TI) is calculated using the following formula: […]
(§9) Easy comparison and ranking of each trait is enabled by normalizing tolerance indexes on Arabidopsis wild-type HPPD.

[2] = target: Scenedesmus HPPD (Seq ID: 2) (Tetradesmus obliquus, UniProt A0A383WMN4, N195D); test: In vitro HPPD activity assay; assay type: biochemical
Sequence of Scenedesmus HPPD (Seq ID: 2) (A0A383WMN4 entry or part of it N195D): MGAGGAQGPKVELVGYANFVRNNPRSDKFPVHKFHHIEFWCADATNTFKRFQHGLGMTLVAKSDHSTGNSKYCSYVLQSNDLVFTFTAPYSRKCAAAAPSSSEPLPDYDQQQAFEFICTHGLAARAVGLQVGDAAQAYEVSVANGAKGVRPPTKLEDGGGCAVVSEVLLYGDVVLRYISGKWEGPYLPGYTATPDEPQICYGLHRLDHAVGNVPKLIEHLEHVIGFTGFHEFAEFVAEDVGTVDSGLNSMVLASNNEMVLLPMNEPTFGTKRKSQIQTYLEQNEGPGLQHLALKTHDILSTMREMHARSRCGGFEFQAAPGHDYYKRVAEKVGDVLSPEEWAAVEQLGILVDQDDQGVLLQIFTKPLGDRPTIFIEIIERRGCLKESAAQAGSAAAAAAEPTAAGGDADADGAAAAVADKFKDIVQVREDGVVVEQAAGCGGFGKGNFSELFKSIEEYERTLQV
Experimental: as §1, §2, §3, §4, §5, §6, §7, §8, §9

[3] = target: T1, Arabidopsis HPPD (Seq ID: 42) (Arabidopsis thaliana, UniProt P93836); test: In vitro HPPD activity assay (homogentisic acid by HPLC); assay type: biochemical
T1 construct: His6; made in house; host or cells: E. coli BL21 (DE3)
T1 sequence (P93836 1-445): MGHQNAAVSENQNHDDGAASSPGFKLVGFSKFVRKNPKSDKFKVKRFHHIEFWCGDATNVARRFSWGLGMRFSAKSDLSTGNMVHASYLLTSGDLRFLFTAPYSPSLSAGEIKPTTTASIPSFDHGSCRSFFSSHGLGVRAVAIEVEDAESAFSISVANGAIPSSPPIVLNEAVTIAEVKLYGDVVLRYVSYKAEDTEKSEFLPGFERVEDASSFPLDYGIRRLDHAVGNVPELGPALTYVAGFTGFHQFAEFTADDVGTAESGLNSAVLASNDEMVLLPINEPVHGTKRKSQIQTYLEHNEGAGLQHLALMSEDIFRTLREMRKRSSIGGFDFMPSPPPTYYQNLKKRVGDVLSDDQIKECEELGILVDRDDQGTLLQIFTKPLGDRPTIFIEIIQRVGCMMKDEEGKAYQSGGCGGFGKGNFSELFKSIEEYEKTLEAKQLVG
Experimental: as §1, §2, §3, §4, §5
as §6, with “Thus, final inhibitor concentrations range from 5 μM to 320 pM, respectively.” left out
as §7, with “Apparent kcat values are calculated from Vmax assuming 100% purity of the enzyme preparation.” left out, “experiments.” for “experiments. The Cheng-Prusoff equation for competitive inhibition (Cheng, Y. C.; Prusoff, W. H. Biochem Pharmacol 1973, 22, 3099-3108) is used to calculate dissociation constants (Ki).”
as §8, §9

SoHPPD Q317H = test: In vitro HPPD activity assay; assay type: biochemical, Scenedesmus obliquus; conditions: normalized on Arabidopsis wild-type HPPD (SEQ ID NO:42)
Experimental: as §1, §2, §3, §4, §5, §6, §7, §8, §9

[4] = tested on: SoHPPD F39W, L367V, I375L (short); test: In vitro HPPD activity assay; assay type: biochemical, Scenedesmus obliquus; conditions: normalized on Arabidopsis wild-type HPPD (SEQ ID NO:42)
Experimental: as §1, §2, §3, §4, §5, §6, §7, §8, §9

SoHPPD I455V = test: In vitro HPPD activity assay; assay type: biochemical, Scenedesmus obliquus; conditions: normalized on Arabidopsis wild-type HPPD (SEQ ID NO:42)
Experimental: as §1, §2, §3, §4, §5, §6, §7, §8, §9

[5] = tested on: SoHPPD K326E, E345Q (short); test: In vitro HPPD activity assay; assay type: biochemical, Scenedesmus obliquus; conditions: normalized on Arabidopsis wild-type HPPD (SEQ ID NO:42)
Experimental: as §1, §2, §3, §4, §5, §6, §7, §8, §9

SoHPPD I419V (short) = test: In vitro HPPD activity assay; assay type: biochemical, Scenedesmus obliquus; conditions: normalized on Arabidopsis wild-type HPPD (SEQ ID NO:42)
Experimental: as §1, §2, §3, §4, §5, §6, §7, §8, §9

SoHPPD A318R, L350M = test: In vitro HPPD activity assay; assay type: biochemical, Scenedesmus obliquus; conditions: normalized on Arabidopsis wild-type HPPD (SEQ ID NO:42)
Experimental: as §1, §2, §3, §4, §5, §6, §7, §8, §9

SoHPPD V251A (short) = test: In vitro HPPD activity assay; assay type: biochemical, Scenedesmus obliquus; conditions: normalized on Arabidopsis wild-type HPPD (SEQ ID NO:42)
Experimental: as §1, §2, §3, §4, §5, §6, §7, §8, §9

[6] = tested on: SoHPPD A318R, L350M (short); test: In vitro HPPD activity assay; assay type: biochemical, Scenedesmus obliquus; conditions: normalized on Arabidopsis wild-type HPPD (SEQ ID NO:42)
Experimental: as §1, §2, §3, §4, §5, §6, §7, §8, §9

[7] = tested on: SoHPPD Q317H, A318G, E345Q (short); test: In vitro HPPD activity assay; assay type: biochemical, Scenedesmus obliquus; conditions: normalized on Arabidopsis wild-type HPPD (SEQ ID NO:42)
Experimental: as §1, §2, §3, §4, §5, §6, §7, §8, §9

SoHPPD Q317H (short) = test: In vitro HPPD activity assay; assay type: biochemical, Scenedesmus obliquus; conditions: normalized on Arabidopsis wild-type HPPD (SEQ ID NO:42)
Experimental: as §1, §2, §3, §4, §5, §6, §7, §8, §9

SoHPPD L367V, I375L = test: In vitro HPPD activity assay; assay type: biochemical, Scenedesmus obliquus; conditions: normalized on Arabidopsis wild-type HPPD (SEQ ID NO:42)
Experimental: as §1, §2, §3, §4, §5, §6, §7, §8, §9

SoHPPD Q317M (short) = test: In vitro HPPD activity assay; assay type: biochemical, Scenedesmus obliquus; conditions: normalized on Arabidopsis wild-type HPPD (SEQ ID NO:42)
Experimental: as §1, §2, §3, §4, §5, §6, §7, §8, §9

[8] = tested on: SoHPPD Q317H, A318G, E345Q; test: In vitro HPPD activity assay; assay type: biochemical, Scenedesmus obliquus; conditions: normalized on Arabidopsis wild-type HPPD (SEQ ID NO:42)
Experimental: as §1, §2, §3, §4, §5, §6, §7, §8, §9

SoHPPD E345Q (short) = test: In vitro HPPD activity assay; assay type: biochemical, Scenedesmus obliquus; conditions: normalized on Arabidopsis wild-type HPPD (SEQ ID NO:42)
Experimental: as §1, §2, §3, §4, §5, §6, §7, §8, §9

[9] = tested on: SoHPPD L367V, I375L (short); test: In vitro HPPD activity assay; assay type: biochemical, Scenedesmus obliquus; conditions: normalized on Arabidopsis wild-type HPPD (SEQ ID NO:42)
Experimental: as §1, §2, §3, §4, §5, §6, §7, §8, §9

SoHPPD E379Q (short) = test: In vitro HPPD activity assay; assay type: biochemical, Scenedesmus obliquus; conditions: normalized on Arabidopsis wild-type HPPD (SEQ ID NO:42)
Experimental: as §1, §2, §3, §4, §5, §6, §7, §8, §9

SoHPPD F363I (short) = test: In vitro HPPD activity assay; assay type: biochemical, Scenedesmus obliquus; conditions: normalized on Arabidopsis wild-type HPPD (SEQ ID NO:42)
Experimental: as §1, §2, §3, §4, §5, §6, §7, §8, §9

SoHPPD F363I = test: In vitro HPPD activity assay; assay type: biochemical, Scenedesmus obliquus; conditions: normalized on Arabidopsis wild-type HPPD (SEQ ID NO:42)
Experimental: as §1, §2, §3, §4, §5, §6, §7, §8, §9

[10] = tested on: SoHPPD A318P, A319P (short); test: In vitro HPPD activity assay; assay type: biochemical, Scenedesmus obliquus; conditions: normalized on Arabidopsis wild-type HPPD (SEQ ID NO:42)
Experimental: as §1, §2, §3, §4, §5, §6, §7, §8, §9

SoHPPD H306K (short) = test: In vitro HPPD activity assay; assay type: biochemical, Scenedesmus obliquus; conditions: normalized on Arabidopsis wild-type HPPD (SEQ ID NO:42)
Experimental: as §1, §2, §3, §4, §5, §6, §7, §8, §9

[11] = apparent michaelis constant, substrate inhibition model, read-out: Km (4-HPP)
[12] = apparent, from Vmax assuming 100% purity
[13] = normalized on Arabidopsis wild-type HPPD (SEQ ID NO:42)

Sequence of Scenedesmus Short HPPD (Seq ID: 4) (A0A383WMN4 entry or part of it N195D/DEL398-433): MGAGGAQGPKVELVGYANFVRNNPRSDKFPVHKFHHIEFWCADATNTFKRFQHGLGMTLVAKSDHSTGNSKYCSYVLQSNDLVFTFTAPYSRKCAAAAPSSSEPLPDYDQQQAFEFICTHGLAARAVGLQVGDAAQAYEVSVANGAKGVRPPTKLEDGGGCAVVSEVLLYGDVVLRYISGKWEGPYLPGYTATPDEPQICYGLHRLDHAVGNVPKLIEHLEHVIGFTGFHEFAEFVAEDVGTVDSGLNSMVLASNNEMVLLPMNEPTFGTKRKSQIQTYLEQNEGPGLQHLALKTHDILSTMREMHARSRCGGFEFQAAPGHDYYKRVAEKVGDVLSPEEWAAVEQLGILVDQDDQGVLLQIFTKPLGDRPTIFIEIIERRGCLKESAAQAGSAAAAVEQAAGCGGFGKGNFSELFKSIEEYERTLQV

For `CN(c1c(Cl)ccc(C2=C(O)c3ncccc3C(C)(C)S2(=O)=O)c1Cl)S(C)(=O)=O` [Inhibitor 3, N-[2,6-dichloro-3-(8-hydroxy-5,5-dimethyl-6,6-dioxo-thiopyrano[4,3-b]pyridin-7-yl)phenyl]-N-methyl-methanesulfonamide], the Ki [1] was 580 nM and the Ki [2] was 110 nM.

`O=C(O)C(=O)Cc1ccc(O)cc1` [Inhibitor 4-HPP, 4-hydroxyphenylpyruvate] gave a Km [1, 11] of 89 µM, a kcat [1, 12] of 17 s⁻¹ and a Km [2, 11] of 160 µM. It also gave a kcat [2, 12] of 6 s⁻¹, a Km [3, 11] of 13 µM and a kcat [3, 12] of 12.9 s⁻¹.

`CC[S+]([O-])c1c(Cl)cc(F)c(C(=O)Nc2nnnn2C)c1Cl` (stereo not shown) [Inhibitor 9, 2,4-dichloro-3-ethylsulfinyl-6-fluoro-N-(1-methyltetrazol-5-yl)benzamide] was tested, and the “TI (normalized tolerance index)” value [1, 13] was 1.2, the “TI (normalized tolerance index)” value [2, 13] was 0.1 and the “TI (normalized tolerance index)” value ([3]; benchmark enzyme, normalized on Arabidopsis wild-type HPPD) was 1.0. For the same molecule, the “TI (normalized tolerance index)” value (SoHPPD Q317H) was 0.1, the “TI (normalized tolerance index)” value [4] was 0.2 and the “TI (normalized tolerance index)” value (SoHPPD I455V) was 0.4. The “TI (normalized tolerance index)” value [5] was 0.1, the “TI (normalized tolerance index)” value (SoHPPD I419V (short)) was 0.3 and the “TI (normalized tolerance index)” value (SoHPPD A318R, L350M) was 0.2. For the same molecule, the “TI (normalized tolerance index)” value (SoHPPD V251A (short)) was 0.1, the “TI (normalized tolerance index)” value [6] was 1.2 and the “TI (normalized tolerance index)” value [7] was 0.9. For the same molecule, the “TI (normalized tolerance index)” value (SoHPPD Q317H (short)) was 0.7, the “TI (normalized tolerance index)” value (SoHPPD L367V, I375L) was 0.1 and the “TI (normalized tolerance index)” value (SoHPPD Q317M (short)) was 1.1. The “TI (normalized tolerance index)” value [8] was 0.1, the “TI (normalized tolerance index)” value (SoHPPD E345Q (short)) was 0.2 and the “TI (normalized tolerance index)” value [9] was 0.4. For the same molecule, the “TI (normalized tolerance index)” value (SoHPPD E379Q (short)) was 0.2, the “TI (normalized tolerance index)” value (SoHPPD F363I (short)) was “not inhibited; also recorded: no inhi-” and the “TI (normalized tolerance index)” value (SoHPPD F363I) was 2,7. The “TI (normalized tolerance index)” value [10] was 0.7 and the “TI (normalized tolerance index)” value (SoHPPD H306K (short)) was 0.2.
